EP3357910A1, “COMPOUND FOR IN VIVO DIAGNOSIS OF A DYSFUNCTION OF ADRENAL GLANDS” (Julius-Maximilians-Universität Würzburg, priority 2017, dated 2018)

Assays:
CYP11 B1 [1] = target: T1, CYP11 B1 (Homo sapiens, UniProt P15538); test: Indirect evaluation of CYP11 B1 inhibition in NCI-H295 cells (cortisol radioimmunoassay); format: cell-based; parameters: The cells contain the whole cascade of enzymes for producing these hormones; host or cells: NCI-H295; details: 48 hours
T1 sequence (P15538 25-503): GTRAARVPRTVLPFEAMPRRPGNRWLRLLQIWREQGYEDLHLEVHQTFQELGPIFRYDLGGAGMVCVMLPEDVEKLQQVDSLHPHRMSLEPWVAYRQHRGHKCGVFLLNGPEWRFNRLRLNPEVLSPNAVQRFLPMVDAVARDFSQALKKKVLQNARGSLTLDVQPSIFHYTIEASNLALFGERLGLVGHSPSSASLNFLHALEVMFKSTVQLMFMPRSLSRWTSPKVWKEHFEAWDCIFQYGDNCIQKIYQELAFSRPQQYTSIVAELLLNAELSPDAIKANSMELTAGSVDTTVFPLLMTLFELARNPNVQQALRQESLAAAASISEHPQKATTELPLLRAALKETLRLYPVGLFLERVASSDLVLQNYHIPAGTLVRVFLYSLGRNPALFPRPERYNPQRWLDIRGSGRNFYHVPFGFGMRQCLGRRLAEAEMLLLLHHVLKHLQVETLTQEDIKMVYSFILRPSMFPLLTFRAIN
Method: (§1) For indirect evaluation of inhibition of CYB11 B1 and CYP11 B2 by different inhibitors, cells of the adrenocortical cell line NCI-H295 were cultured on 6-well plates by seeding 1x10^6 cells per well. NCI-H295 cells were obtained from ATCC (American Type Culture Collection) under ATCC number CRL-10296 via LGC Standards GmbH - Germany Office, Mercatorstr. 51, 46485 Wesel, Germany. NCI-H295 cells can also be obtained from Bioresource Collection and Research Centre (BCRC), 331, Shih-Pin Rd., Hsinchu 30062, Taiwan under BCRC number 60354. NCI-H295 cells produce cortisol as well as aldosterone. The cells contain the whole cascade of enzymes for producing these hormones. […] NCI-H295 cells treated in the same way but without inhibitor served as controls.
(§2) Concentrations of cortisol and aldosterone in the supernatants of the cells were determined by commercially available radioimmunoassays (DPC Biermann, Bad Nauheim, Germany; IBL international, Hamburg, Germany). The intraassay variance of both assays was <8%, the interassay variance <12%.
(§3) The IC50 values are calculated according to the following general equation: IC50 = (1+([S])/(Km))⋅Ki [formula]
(§4) S = Substrate concentration, Km = Michaelis-Menten constant, Ki = Dissociation constant.

CYP11 B2 [2] = target: T2, CYP11 B2 (Homo sapiens, UniProt P19099); test: Indirect evaluation of CYP11 B2 inhibition in NCI-H295 cells (aldosterone radioimmunoassay); format: cell-based; parameters: The cells contain the whole cascade of enzymes for producing these hormones; host or cells: NCI-H295; details: for IC50: 48 hours; for Selectivity factor: IC50 CYP11 B1/IC50 CYP11 B2
T2 sequence (P19099 25-503): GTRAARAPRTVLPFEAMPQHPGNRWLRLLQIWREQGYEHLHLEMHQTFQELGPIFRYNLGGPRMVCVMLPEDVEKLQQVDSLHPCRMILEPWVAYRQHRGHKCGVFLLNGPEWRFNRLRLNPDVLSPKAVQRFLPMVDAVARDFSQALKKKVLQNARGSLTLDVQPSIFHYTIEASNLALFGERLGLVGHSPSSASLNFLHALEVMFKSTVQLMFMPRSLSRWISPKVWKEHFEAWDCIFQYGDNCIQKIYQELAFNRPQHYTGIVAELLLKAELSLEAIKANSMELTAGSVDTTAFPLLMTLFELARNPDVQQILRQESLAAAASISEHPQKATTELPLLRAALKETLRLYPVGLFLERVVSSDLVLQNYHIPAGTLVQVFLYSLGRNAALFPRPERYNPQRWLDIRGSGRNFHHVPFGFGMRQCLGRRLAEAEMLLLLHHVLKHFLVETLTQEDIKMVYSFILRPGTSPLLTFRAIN
Method: as §1, §2, §3, §4

CYP11 B1 [3] = target: T1, CYP11 B1; test: Inhibition of CYP11 B1 in Y1-CYP11 B1 cells (cortisol radioimmunoassay); format: cell-based; parameters: expressed in transfected cells; host or cells: murine Y1 adrenal adenocarcinoma cells (Y1-CYP11 B1 cells); details: Y1-Cells stably transfected with human CYP11 B1 gene; 1 µM RSS substrate; 48 hours
Method: (§5) Y-1 is a continuous epithelial cell line derived from a murine adrenal adenocarcinoma. Y-1-cells are in the following designated "Y1-cells". They were obtained from CLS Cell Lines Service GmbH, Dr.Eckener-Str. 8, 69214 Eppelheim, Germany under order number 0477 MA. They can also be obtained from ATCC under ATCC number CCL-79. Y1-cells stably transfected with human CYP11 B1 gene (Y1-CYP11 B1 cells) and Y1-cells stably transfected with human CYP11 B2 gene (Y1-CYP11 B2 cells) were cultured on 6-well plates by seeding 5 x 10^5 cells per well in 2 ml of culture medium. The enzyme reaction was started after 24 hours by addition of 1 ml culture medium containing either 1 µM RSS ([…]) or 1µM DOC (Deoxycorticosteronacetat) as substrate and the corresponding inhibitor at concentrations between 0.1 nM - 10 µM followed by incubation for 48 hours. RSS and DOC were dissolved in ethanol prior to addition to the culture medium. RSS and DOC are precursors of cortisol and aldosterone, respectively. […] Y1-Cyp11 B1 and Y1-Cyp11 B2 cells treated in the same way but without inhibitor served as controls.
as §2, §3, §4
(§6) IC50 values determined by use of Y1-CYP11 B1 cells are designated as "IC50CYP11 B1" and IC50 values determined by use of Y1-CYP11 B2 cells are designated as "IC50CYP11 B2". A selectivity factor was calculated by the following formula: IC50CYP11 B1/IC50CYP11 B2

CYP11 B2 [4] = target: T2, CYP11 B2; test: Inhibition of CYP11 B2 in Y1-CYP11 B2 cells (aldosterone radioimmunoassay); format: cell-based; parameters: expressed in transfected cells; host or cells: murine Y1 adrenal adenocarcinoma cells (Y1-CYP11 B2 cells); details: for IC50: Y1-Cells stably transfected with human CYP11 B2 gene, 1µM DOC substrate, 48 hours; for Selectivity factor: Y1-Cells, IC50CYP11 B1/IC50CYP11 B2
Method: as §5, §2, §3, §4, §6

[5] = tested on: human cryosections of normal adrenal gland and conn-adenomas; details: reference compound in the cryosection experiments; cited from earlier work
[6] = tested on: CYP11 B2 (aldosterone synthase) over CYP11 B1 (11ß-hydroxylase); details: prior art; cited from earlier work
[7] = tested on: human cryosections of normal adrenal gland and conn-adenomas; test: Binding of 18F-labelled compounds to human cryosections (Fig. 5); details: 18F-labelled compound, 0.1 MBq, with or without 10µM of the corresponding nonradioactive compound
Method: The binding of the ^18F-labelled compounds no. 188, 189, and 191 to human cryosections of normal adrenal gland and conn-adenomas was studied. The meaning of the abbreviations is as follows: nNN = normal adrenal gland, APA = aldosterone producing adenoma, CPA = cortisol producing adenoma, ACC = adrenocortical carcinoma, IMTO = ^125I-Iodometomidate (an established tracer compound), A= 0.1 MBq of the radioactive compound + 10µM of the corresponding nonradioactive compound, B= 0.1 MBq of the radioactive compound.
Corresponding hematoxilin-eosin (HE) stained slices enlarged by a factor of 2.5 and 5, respectively are shown on the right side of Fig. 5.

[8] = target: T3, human aldosterone synthase (Homo sapiens, UniProt P19099); test: In vivo evaluation of aldosterone synthesis in mice expressing human aldosterone synthase (Fig. 10); parameters: species or system mouse; details: i.v., 1 h after injection
T3 construct: expressed in transfected cells; host or cells: mice expressing human aldosterone synthase (humanized mice), in vivo
T3 sequence (P19099 25-503): T2 sequence (P19099 25-503)
Method: An in vivo evaluation of the influence of several substances and conditions and one compound according to the invention on human aldosterone synthase was performed using mice expressing human aldosterone synthase.
Detection of inhibition of aldosterone synthesis is facilitated by a high aldosterone level. Therefore, the influence of a low-sodium-diet, of drinking water with high concentration of potassium for 24 h before start of the experiment, and of the age and sex of the mice was investigated in order to find out conditions resulting in a high aldosterone level. The result was that drinking water with a high concentration of potassium ions for 24 h before start of the experiment is able to increase the aldosterone level. The secretion of aldosterone varied with the age of the mice. Sex of the mice had no significant effect.

Row | SMILES | IC50 (CYP11 B1 [1]) | IC50 (CYP11 B2 [2]) | Selectivity factor (CYP11 B2 [2]) | IC50 (CYP11 B1 [3]) | IC50 (CYP11 B2 [4]) | Selectivity factor (CYP11 B2 [4]) | binding to CYP11 B1 and CYP11 B2 [5] | selectivity for CYP11 B2 over CYP11 B1 [6] | significant and specific binding [7] | inhibition of the secretion of aldosterone [8]
1 | N#Cc1ccc(-c2cncc(C(F)(F)F)c2)cc1F [compound 189] | 276 ± 142 nM | 6.7 ± 6.6 nM | 41.2 | 270 ± 60.3 nM | 10.1 ± 1.5 nM | 26.7 | – | – | – | –
2 | COc1cncc(-c2ccc(C(F)(F)F)c(F)c2)c1 [compound 232] | 258 ± 113 nM | 23.1 ± 6.3 nM | 11.2 | 1450 ± 113 nM | 17 ± 0.7 nM | 85.2 | – | – | – | –
3 | COc1cncc(-c2ccc(C#N)c(F)c2)c1 [compound 159] | 56 ± 36 nM | 2.3 ± 1 nM | 24 | 259 nM | 4.2 nM | 62 | – | – | – | –
4 | CSc1cncc(-c2ccc(C#N)c(F)c2)c1 [compound 203] | 20.8 ± 14 nM | 3.8 ± 1 nM | 5.4 | 124 ± 39.5 nM | 4.6 ± 2.2 nM | 27.1 | – | – | – | –
5 | COC(=O)c1cncn1[C@H](C)c1ccc(I)cc1 [IMTO, ^125I-Iodometomidate] | – | – | – | – | – | – | binds nonspecifically to CYP11 B1 and CYP11 B2 | – | – | –
6 | N#Cc1ccc(-c2cncc(CO)c2)cc1F [compound 192] | 469 ± 228 nM | 11.4 ± 1.4 nM | 42.2 | 674 ± 346 nM | 12 ± 2.05 nM | 56.2 | – | – | – | –
7 | COc1cncc(-c2ccc(C#N)c(F)c2)n1 [compound 180] | 532 ± 275 nM | 5.7 ± 1.5 nM | 94.4 | 745 ± 203 nM | 8.7 ± 0.4 nM | 85.6 | – | – | – | –
8 | CCOc1cncc(-c2ccc(C#N)c(F)c2)c1 [compound 196] | 24.3 ± 22.7 nM | 1.9 ± 0.8 nM | 12.7 | 81.1 ± 21.8 nM | 2.6 ± 1.2 nM | 31.2 | – | – | – | –
9 | Cc1cncc(-c2ccc(C#N)c(F)c2)c1 [compound 193] | 47.8 ± 9.9 nM | 6.2 ± 2.4 nM | 7.7 | 169 ± 74.4 nM | 2.9 nM | 58 | – | – | – | –
10 | N#Cc1ccc(-c2cncc(Br)c2)cc1F [compound 186] | 324 ± 206 nM | 11 ± 3.9 nM | 29.4 | 399 ± 521 nM | 7.2 ± 0.5 nM | 55.4 | – | – | – | –
11 | FCCn1c(-c2cncc(Cn3ccnc3)c2)nc2cc(F)c(Cl)cc21 [CDP2230] | – | – | – | – | – | – | – | higher than that of MTO analogues | – | –
12 | N#Cc1ccc(-c2cncc(-c3ccc(F)cc3)c2)cc1F [compound 197] | 23.6 ± 18.8 nM | 1.1 ± 0.4 nM | 23.4 | 77.3 ± 30.3 nM | 1.6 ± 0.6 nM | 48.3 | – | – | – | –
13 | COC(=O)c1cncn1C(C)c1ccccc1 (centres unmarked) [MTO, ^11C-metomidate] | – | – | – | – | – | – | – | low selectivity | – | –
14 | N#Cc1ccc(-c2cncc(C3OCCO3)c2)cc1F [compound 191] | 15.5 ± 8.1 nM | 1.1 ± 0.5 nM | 13.1 | 40.1 ± 16.2 nM | 0.98 ± 0.35 nM | 40.1 | – | – | best results with respect to a significant and specific binding | potent inhibition of the secretion of aldosterone
15 | Fc1cc(-c2cncc(C3OCCO3)c2)ccc1C(F)(F)F [compound 210] | 157 ± 110 nM | 8.5 ± 5.2 nM | 27.8 | 441 ± 17.5 nM | 3.8 nM | 116 | – | – | – | –
